Experimental data as given in paper PMC7785057 (ACS catalysis, 2020).

Biological target: NmSiaDW (Neisseria meningitidis, UniProt O33390)
Assay: sialyltransferase kinetics, varied acceptor
Type: biochemical
Conditions: α2–6-sialyltransferase activity, fixed concentration of CMP-Neu5Ac

With `CC(=O)N[C@H]1[C@H]([C@H](O)[C@H](O)CO)O[C@@](OC[C@H]2O[C@H](O[C@H]3C[C@](OCCCNC(=O)OCc4ccccc4)(C(=O)O)O[C@@H]([C@H](O)[C@H](O)CO)[C@@H]3NC(C)=O)[C@H](O)[C@@H](O)[C@H]2O)(C(=O)O)C[C@@H]1O[C@H]1O[C@H](CO)[C@H](O)[C@H](O)[C@H]1O` [G4] the Km was 240 ± 40 µM.
